The record followed here is ChEMBL document CHEMBL4196086, “Recent advances of imidazole-containing derivatives as anti-tubercular agents” (Eur J Med Chem, 2018).

The structures appear in SMILES notation. In brackets after ≈: the same amount, converted by molar mass.

Test [1] has as its system Mycobacterium tuberculosis. Nature of the test: Antimycobacterial activity against Mycobacterium tuberculosis. The format is functional.
The subject of test [2] is Mycobacterium tuberculosis. Nature of the test: Potency index, ratio of ethambutol MIC to compound MIC for Mycobacterium tuberculosis. The format is functional.
In test [3] the test system is Mycobacterium tuberculosis. Nature of the test: Potency index, ratio of PA-824 MIC to compound MIC for Mycobacterium tuberculosis. The format is functional.
The test system of test [4] is Mycobacterium tuberculosis. Put plainly: Potency index, ratio of streptomycin MIC to compound MIC for Mycobacterium tuberculosis. The format is functional.
Test [5] relates to Mycobacterium tuberculosis. Nature of the test: Potency index, ratio of ofloxacin MIC to compound MIC for Mycobacterium tuberculosis. The format is functional.
In test [6] the test system is Mycobacterium tuberculosis. Put plainly: Potency index, ratio of isoniazid MIC to compound MIC for Mycobacterium tuberculosis. The format is functional.
The subject of test [7] is Mycobacterium tuberculosis. Nature of the test: Potency index, ratio of ethionamide MIC to compound MIC for Mycobacterium tuberculosis. The format is functional.
Test [8] deals with Mycobacterium tuberculosis. Nature of the test: Antimycobacterial activity against Mycobacterium tuberculosis H37Rv in hypoxia-induced latent phase. The format is functional.
In test [9] the test system is Mycobacterium tuberculosis. Put plainly: Antimycobacterial activity against Mycobacterium tuberculosis H37Rv in logarithmic phase. The format is functional.
For test [10], the system named is Mycobacterium tuberculosis. Nature of the test: Potency index, ratio of pyrazinamide MIC to compound MIC for Mycobacterium tuberculosis H37Rv. The format is functional.
Test [11] has as its system Mycobacterium tuberculosis. Put plainly: Potency index, ratio of streptomycin MIC to compound MIC for Mycobacterium tuberculosis H37Rv. The format is functional.
Test [12] has as its system Mycobacterium tuberculosis. Put plainly: Antimycobacterial activity against Mycobacterium tuberculosis H37Rv after 5 days by MABA. The format is functional. As to conditions: 120 h.
The test system of test [13] is Mycobacterium tuberculosis. Nature of the test: Potency index, ratio of isoniazid MIC to compound MIC for Mycobacterium tuberculosis H37Rv. The format is functional.
The next test deals with HEK293. Put plainly: Cytotoxicity against HEK293 cells after 24 hrs by MTT assay. The format is cell-based. The note with it: Homo sapiens, HEK293, 24 h.
The subject of test [14] is Mycobacterium tuberculosis. Put plainly: Potency index, ratio of ciprofloxacin MIC to compound MIC for Mycobacterium tuberculosis H37Rv. The format is functional.
Test [15] concerns Mycobacterium tuberculosis. Put plainly: Antimycobacterial activity against non-replicating Mycobacterium tuberculosis. The format is functional.
In test [16] the test system is Mycobacterium tuberculosis. Put plainly: Antimycobacterial activity against replicating Mycobacterium tuberculosis. The format is functional.
Test [17] has as its system Mycobacterium tuberculosis. Nature of the test: Antimycobacterial activity against Mycobacterium tuberculosis ATCC 35828. The format is functional.
Test [18] relates to Mycobacterium tuberculosis. Nature of the test: Antimycobacterial activity against Mycobacterium tuberculosis ATCC 27294. The format is functional.
Test [19] deals with Mycobacterium tuberculosis. Put plainly: Antimycobacterial activity against Mycobacterium tuberculosis ATCC 35822. The format is functional.
The test system of test [20] is Mycolicibacterium smegmatis. Put plainly: Antimycobacterial activity against Mycobacterium smegmatis. The format is functional.
For test [21], the system named is Mycobacterium tuberculosis. Nature of the test: Antimycobacterial activity against Mycobacterium tuberculosis ATCC 35837. The format is functional.
The subject of test [22] is Mycolicibacterium fortuitum. Put plainly: Antimycobacterial activity against Mycobacterium fortuitum. The format is functional.
Test [23] concerns Mycobacterium tuberculosis. Put plainly: Antimycobacterial activity against Mycobacterium tuberculosis ATCC 35820. The format is functional.
Test [24] relates to Mycobacterium tuberculosis. Put plainly: Antimycobacterial activity against Mycobacterium tuberculosis H37Rv ATCC 27294 by serial dilution assay. The format is functional.
Test [25] has as its system Mycobacterium tuberculosis. Nature of the test: Antimycobacterial activity against Mycobacterium tuberculosis H37Rv. The format is functional.

Regarding `Cc1ccn2c(C(=O)NCc3ccccc3Cl)c(C)nc2c1`, it took 0.003 µM (≈ 0.000941 µg/mL) to inhibit growth in test [1] (MIC). The Ratio in [2], in [3], in [4], in test [5], in test [6] and in test [7] was over 100 in each case.
`COc1ccc(-c2nc3cc(-c4ccc5[nH]c(-c6ccc(OC)cc6)nc5c4)ccc3[nH]2)cc1`: the minimum inhibitory concentration (MIC) in test [8] and in test [9] was 0.5 to 16 µg/mL (≈ 1.12 to 35.8 µM) each time.
For `Oc1ccc(-c2nc3ccc(-c4ccc5nc(-c6ccc(O)cc6)[nH]c5c4)cc3[nH]2)cc1`, the MIC in [8] and in test [9] was 0.5 to 16 µg/mL (≈ 1.19 to 38.2 µM) each time.
Turning to `O=C1/C(=C\c2ccccc2)SC(c2ccc(-n3ccnc3)cc2)N1Nc1ccccc1` (configuration not stated), the MIC (commonly the least concentration at which growth counts as inhibited) in test [1] lay within 14.3 to 49.7 µM (≈ 6.06 to 21.1 µg/mL).
For `Cn1c(-c2cccc(Cl)c2Cl)nc2cc(-c3nc(-c4ccc(Cl)cc4)no3)ccc21`, the Ratio in [10] was 2; in [11], 4; in [13], 4; in test [14], 2. The molecule also came in with an MIC in [12] of 1.6 to 25 µg/mL (≈ 3.51 to 54.9 µM). Further, in the test with HEK293, the IC50 (usually the concentration needed to halve the response being measured) is over 500 µg/mL.
Turning to `O=C1/C(=C\c2ccc(Cl)cc2)SC(c2ccc(-n3ccnc3)cc2)N1Nc1ccccc1` (configuration not stated), in [1], the minimal inhibitory concentration (MIC) lay within 14.3 to 49.7 µM (≈ 6.55 to 22.8 µg/mL).
Regarding `Cn1c(-c2cccc(Cl)c2F)nc2cc(-c3nc(Cc4cccc(Cl)c4)no3)ccc21`, the Ratio in test [10] is 2; in test [11] it was 4; in [13], 4; in test [14], 2. This molecule also had an MIC in test [12] of 1.6 to 25 µg/mL (≈ 3.53 to 55.2 µM). In the test with HEK293, this molecule registered an IC50 of over 500 µg/mL.
For `CCCc1cc(=O)oc2c1c(OC)cc1[nH]c(C(=O)OCC)[n+]([O-])c12`, the MIC in test [15] and in test [16] was over 50 µg/mL throughout.
For the molecule `Cn1c(-c2cccc(Cl)c2Cl)nc2cc(-c3nc(-c4ccccc4Cl)no3)ccc21`, the Ratio in test [10] came out at 2; in test [11], 4; in test [13] it was 4; in test [14], 2. Moreover, the MIC in [12] lay in the range of 1.6 to 25 µg/mL (≈ 3.51 to 54.9 µM). This molecule returned an IC50 with HEK293 of 355 µg/mL (≈ 780 µM).
Consider `O=C1/C(=C\c2ccc(Br)cc2)SC(c2ccc(-n3ccnc3)cc2)N1Nc1ccccc1` (configuration not stated), for which the MIC in [1] was in the range of 14.3 to 49.7 µM (≈ 7.18 to 25 µg/mL).
Consider `CCCc1cc(=O)oc2c1c(OC)cc1[nH]c(C(=O)N(C)C)[n+]([O-])c12`, for which the MIC in test [15] and in [16] was over 50 µg/mL throughout.
For `Clc1ccc(-n2ncc(C(c3ccccc3)n3ccnc3)c2-c2ccccc2Cl)c(Cl)c1` (configuration not stated), the MIC in test [17], in test [18], in test [19], in test [20], in [21] and in [22] was 6.7 to 57.7 µM (≈ 3.21 to 27.7 µg/mL) in each case. The MIC in test [23] fell in the range of 6.7 to 57.7 µM (≈ 3.21 to 27.7 µg/mL).
Regarding `COc1ccc(-c2nc3ccc(-c4ccc5nc(-c6ccccc6)[nH]c5c4)cc3[nH]2)cc1`, the MIC in test [8] and in test [9] was 0.25 to 1 µg/mL (≈ 0.6 to 2.4 µM) in each case.
Regarding `CCCSc1nnc(-c2ncc([N+](=O)[O-])n2C)s1`, the MIC in [24] worked out at 3.12 µg/mL (≈ 10.9 µM).
In the case of `Cc1ccc(/C=C2/SC(c3ccc(-n4ccnc4)cc3)N(Nc3ccccc3)C2=O)cc1` (configuration not stated), the MIC in [1] fell in the range of 14.3 to 49.7 µM (≈ 6.26 to 21.8 µg/mL).
As for `CCCc1cc(=O)oc2c1c(OCCN1CCOCC1)cc1[nH]c(C(=O)N(C)C)[n+]([O-])c12`, the MIC in test [15] and in test [16] was over 50 µg/mL throughout.
Regarding `Cn1c(-c2cccc(Cl)c2F)nc2cc(-c3nc(-c4ccc(Cl)cc4)no3)ccc21`, the Ratio in test [10] is on record as 2; in test [11], 4; in test [13], 4; in [14] it was 2. In [12], the MIC was in the range of 1.6 to 25 µg/mL (≈ 3.64 to 56.9 µM). In the test with HEK293, the IC50 was over 500 µg/mL.
Molecule `CO[C@H]1/C=C/O[C@@]2(C)Oc3c(C)c(O)c4c(O)c(c(/C=N/N5CCN(C)CC5)c(O)c4c3C2=O)NC(=O)/C(C)=C\C=C\[C@H](C)[C@H](O)[C@@H](C)[C@@H](O)[C@@H](C)[C@H](OC(C)=O)[C@@H]1C` [RIFAMPIN] yielded an MIC in test [24] of 0.125 to 0.25 µg/mL (≈ 0.152 to 0.304 µM). Moreover, the MIC98 in test [25] was 40 µg/mL (≈ 48.6 µM).
